The NIST ThermoML archive (doi:10.1021/je5010214)

Details: Liquid, Vibrating tube method

CCCCO [butan-1-ol]
Details | mass density [kg/m3]
323.15 K, 34081 kPa | 811.155
323.15 K, 35113 kPa | 811.773
323.15 K, 37953 kPa | 813.623
323.15 K, 42011 kPa | 816.075
323.15 K, 48025 kPa | 819.642
323.15 K, 49934 kPa | 820.799
323.15 K, 52114 kPa | 821.994
323.15 K, 54964 kPa | 823.594
323.15 K, 58045 kPa | 825.293
323.15 K, 60050 kPa | 826.448
323.15 K, 62131 kPa | 827.565
323.15 K, 64999 kPa | 829.093
323.16 K, 920.7 kPa | 786.888
323.16 K, 27958 kPa | 807.28
323.16 K, 30055 kPa | 808.674
323.16 K, 33067 kPa | 810.61
323.16 K, 40047 kPa | 814.861
323.16 K, 44937 kPa | 817.856
323.16 K, 66131 kPa | 829.687
328.15 K, 97.9 kPa | 781.987
328.15 K, 289.9 kPa | 782.179
328.15 K, 897.5 kPa | 782.733
328.15 K, 994.1 kPa | 782.825
328.15 K, 1988.8 kPa | 783.741
328.15 K, 2996.7 kPa | 784.66
328.15 K, 5013.4 kPa | 786.446
328.15 K, 6974.9 kPa | 788.15
328.15 K, 9017 kPa | 789.881
328.15 K, 10040 kPa | 790.727
328.15 K, 24924 kPa | 802.164
328.15 K, 27979 kPa | 804.324
328.15 K, 29958 kPa | 805.68
328.15 K, 32060 kPa | 807.104
328.15 K, 33066 kPa | 807.772
328.15 K, 33107 kPa | 807.703
328.15 K, 34013 kPa | 808.285
328.15 K, 35030 kPa | 808.989
328.15 K, 38010 kPa | 810.915
328.15 K, 39969 kPa | 812.181
328.15 K, 41959 kPa | 813.311
328.15 K, 44953 kPa | 815.144
328.15 K, 47978 kPa | 816.959
328.15 K, 49927 kPa | 818.128
328.15 K, 51997 kPa | 819.32
328.15 K, 54947 kPa | 821.045
328.15 K, 57939 kPa | 822.658
328.15 K, 59991 kPa | 823.77
328.15 K, 61982 kPa | 824.89
328.15 K, 65032 kPa | 826.439
328.15 K, 66046 kPa | 826.965
328.16 K, 501 kPa | 782.371
328.16 K, 12210 kPa | 792.522
328.16 K, 15055 kPa | 794.783
328.16 K, 18061 kPa | 797.122
328.16 K, 20279 kPa | 798.799
328.16 K, 22013 kPa | 800.057
333.15 K, 532.6 kPa | 779.903
333.15 K, 897.8 kPa | 780.245
333.15 K, 1987.2 kPa | 781.249
333.15 K, 3023.4 kPa | 782.177
333.15 K, 4997.4 kPa | 783.921
333.15 K, 7002.4 kPa | 785.686
333.15 K, 9032 kPa | 787.401
333.15 K, 10210 kPa | 788.367
333.15 K, 15008 kPa | 792.251
333.15 K, 22034 kPa | 797.567
333.15 K, 28040 kPa | 801.782
333.15 K, 30016 kPa | 803.156
333.15 K, 32067 kPa | 804.524
333.15 K, 34086 kPa | 805.827
333.15 K, 35075 kPa | 806.492
333.15 K, 37894 kPa | 808.332
333.15 K, 40111 kPa | 809.759
333.15 K, 41947 kPa | 810.938
333.15 K, 44974 kPa | 812.823
333.15 K, 45490 kPa | 813.093
333.15 K, 47936 kPa | 814.509
333.15 K, 49920 kPa | 815.727
333.15 K, 51953 kPa | 816.927
333.15 K, 54876 kPa | 818.691
333.15 K, 58057 kPa | 820.5
333.15 K, 59993 kPa | 821.547
333.15 K, 62049 kPa | 822.689
333.15 K, 64970 kPa | 824.293
333.15 K, 66005 kPa | 824.853
333.16 K, 87.7 kPa | 779.482
333.16 K, 303.5 kPa | 779.691
333.16 K, 1003 kPa | 780.346
333.16 K, 12011 kPa | 789.847
333.16 K, 17992 kPa | 794.568
333.16 K, 20036 kPa | 796.123
333.16 K, 25027 kPa | 799.667
333.16 K, 33073 kPa | 805.134
338.15 K, 80.9 kPa | 775.106
338.15 K, 309.8 kPa | 775.333
338.15 K, 561.6 kPa | 775.578
338.15 K, 898.5 kPa | 775.911
338.15 K, 1014.1 kPa | 776.019
338.15 K, 2936.1 kPa | 777.859
338.15 K, 5018.6 kPa | 779.821
338.15 K, 10034 kPa | 784.276
338.15 K, 14885 kPa | 788.349
338.15 K, 17956 kPa | 790.925
338.15 K, 19927 kPa | 792.473
338.15 K, 22041 kPa | 794.077
338.15 K, 25026 kPa | 796.362
338.15 K, 29994 kPa | 799.911
338.15 K, 32882 kPa | 801.907
338.15 K, 33937 kPa | 802.603
338.15 K, 35012 kPa | 803.345
338.15 K, 39987 kPa | 806.717
338.15 K, 41990 kPa | 808.025
338.15 K, 44978 kPa | 809.926
338.15 K, 47971 kPa | 811.881
338.15 K, 49999 kPa | 813.099
338.15 K, 52127 kPa | 814.375
338.15 K, 57940 kPa | 817.865
338.15 K, 60014 kPa | 819.058
338.15 K, 65012 kPa | 821.872
338.15 K, 66057 kPa | 822.451
338.16 K, 2000.2 kPa | 776.987
338.16 K, 6917.3 kPa | 781.55
338.16 K, 9046.9 kPa | 783.457
338.16 K, 11959 kPa | 785.981
338.16 K, 27976 kPa | 798.446
338.16 K, 31949 kPa | 801.318
338.16 K, 37962 kPa | 805.345
338.16 K, 54992 kPa | 816.085
338.16 K, 62074 kPa | 820.252
338.16 K, 67534 kPa | 823.221
343.15 K, 73.7 kPa | 769.631
343.15 K, 297.3 kPa | 769.853
343.15 K, 520.3 kPa | 770.07
343.15 K, 911.7 kPa | 770.459
343.15 K, 1017.7 kPa | 770.563
343.15 K, 1994.6 kPa | 771.497
343.15 K, 2332.5 kPa | 771.83
343.15 K, 2968.3 kPa | 772.434
343.15 K, 4994.8 kPa | 774.313
343.15 K, 6976.6 kPa | 776.117
343.15 K, 9002.6 kPa | 777.941
343.15 K, 10060 kPa | 778.847
343.15 K, 12025 kPa | 780.506
343.15 K, 14928 kPa | 782.929
343.15 K, 17975 kPa | 785.398
343.15 K, 19985 kPa | 786.983
343.15 K, 22033 kPa | 788.56
343.15 K, 25091 kPa | 790.858
343.15 K, 28045 kPa | 793.012
343.15 K, 30082 kPa | 794.441
343.15 K, 32170 kPa | 795.891
343.15 K, 33097 kPa | 796.546
343.15 K, 35030 kPa | 797.771
343.15 K, 37943 kPa | 799.701
343.15 K, 40012 kPa | 801.058
343.15 K, 41972 kPa | 802.307
